Measured values from the OPERA property sets (Mansouri et al. 2018).

Conditions: for log10 BCF / log10 biotransformation half-life (days): fish

SMILES	melting point [°C]	boiling point [°C]	also measured
Cc1cc(O)c(Cl)c(C)c1Cl	83		
CC(C)(C)NCC(O)COc1ccccc1C#N (stereo not given)	164		
CC1(C)S[C@@H]2[C@H](N3C(=O)C(c4ccccc4)NC3(C)C)C(=O)N2[C@H]1C(=O)O (stereo not given in full)	190		
CCOC(OCC)C(Cl)(Cl)Cl		197	
N#CC(Cl)(Cl)Cl	-42	85.7	log10 vapour pressure (mmHg): 1.87
COc1cccc(Br)c1		211	
COC(=O)Nc1nc2cc(C(=O)C3CC3)ccc2[nH]1	250		
CCCCCCCCCCCCCCCCCC	28.2	316	log10 biodegradation half-life (days): 1.32; log10 vapour pressure (mmHg): -3.47; ready biodegradability: readily biodegradable
CC(C)NCCO	128	173	
NN(c1ccccc1)c1ccccc1	50.5		log10 vapour pressure (mmHg): -3.31
CCCCCCCCCCCCCN	27.4	276	
C=C(C)c1ccc(C)c2ccc(C=O)c-2c1	58		
Brc1ccc2oc3ccccc3c2c1	110		
COc1ccc([N+](=O)[O-])cc1	54	274	ready biodegradability: not readily biodegradable; log10 BCF: 1.08; log10 biotransformation half-life (days): -0.95
C/C=C1/C[C@@H](C)[C@](O)(CO)C(=O)OCC2=CCN3CC[C@@H](OC1=O)[C@@H]23	212		
COC(=O)C(F)(F)C(F)(F)C(F)(F)F	-86	80	
CC(C)=CC(C)(C)C	-106	105	log10 vapour pressure (mmHg): 1.56
CC=CC(=O)OC(=O)C=CC		247	
Clc1cc2oc3c(Cl)c(Cl)c(Cl)c(Cl)c3c2c(Cl)c1Cl			log10 Koa: 11.4
O[C@@H]1CCc2ccccc2C1	15.5		
CC[C@]1(O)C[C@H]2C[N@](CCc3c([nH]c4ccccc34)[C@@](C(=O)OC)(c3cc4c(cc3OC)N(C)[C@H]3[C@@](O)(C(N)=O)[C@H](O)[C@]5(CC)C=CCN6CC[C@]43[C@@H]65)C2)C1	231		
CCCC(=O)O[C@]1(C(=O)CCl)[C@@H](C)C[C@H]2[C@@H]3CCC4=CC(=O)C=C[C@]4(C)[C@@]3(F)C(=O)C[C@@]21C	95		
CC(CBr)c1ccccc1 (stereo not given)	-59.3	188	
Cc1nc2cc(-c3ccccc3)ccc2o1	63		
COC(OC)(OC)OC	-5	114	

SMILES	melting point [°C]	boiling point [°C]	also measured
CC(C)(C)c1ccc2cc3ccccc3cc2c1	147		log10 vapour pressure (mmHg): -6.19
CCCCCCCCCCCCCCCCCCOP1OCC2(CO1)COP(OCCCCCCCCCCCCCCCCCC)OC2 (stereo not given)			ready biodegradability: readily biodegradable
CCCCCCCCOC(=O)CCCCCC	-22.5	290	
CCCCNC(=O)n1cc(F)c(=O)[nH]c1=O	136		
O=P(OC(Cl)CCCl)(OC(Cl)CCCl)OC(Cl)CCCl (stereo not given)	26.7		
CCc1cccc(C)c1N	-33	231	
CCCCCC(=O)OCC	-67	167	log10 Koc (L/kg): 2.06
Cc1cccc(C)c1N(C)C	-36	196	
C[C@@H]1C[C@H](C)CC(C)(C)C1		152	
C=C(C)C1CC=C(C)C(O)C1 (stereo not given)		228	
O=Cc1cccc(F)c1		173	
O=C(O)c1cccc(C(=O)O)c1	347		ready biodegradability: readily biodegradable
O=Cc1cc(Cl)cc(Cl)c1	65	240	
CC(C)=CCC/C(C)=C/C=C/C(C)=C/C=C/C(C)=C/C=C/C=C(C)/C=C/C=C(C)/C=C/C=C(\C)CCCC(C)(C)O	171		
N#Cc1nn(-c2c(Cl)cc(C(F)(F)F)cc2Cl)c(N)c1S(=O)(=O)C(F)(F)F			log10 biotransformation half-life (days): 1.05
CN(CC(=O)O)C(=O)COC(=O)c1ccccc1	106		
CCCCCCc1ccccc1	-61	226	log10 vapour pressure (mmHg): -0.919; ready biodegradability: readily biodegradable
Cc1cc2ccccc2[nH]1	61	272	
CCCCCCCCCCCCCCCCCCCCCCCCCCCCCCCCCCCCC		505	ready biodegradability: readily biodegradable
Brc1cc(Br)c(Br)c(Br)c1Br	160		
CC1(C)C(=O)Nc2ccccc21	154	300	
CCOC(=O)[C@H](CCc1ccccc1)N[C@H]1CCc2ccccc2N(CC(=O)O)C1=O	148		
O=C1c2cccc([N+](=O)[O-])c2C(=O)c2cccc([N+](=O)[O-])c21	385		
C=C(CC)c1ccccc1		182	
O=Nc1ccc(Nc2ccccc2)cc1	143	292	ready biodegradability: not readily biodegradable

SMILES	melting point [°C]	boiling point [°C]	also measured
CC(=O)c1ccc(N)cc1		294	ready biodegradability: not readily biodegradable
N#Cc1ccco1		147	
COC(=O)COc1ccc(Cl)cc1Cl	119		log10 vapour pressure (mmHg): -2.64
ClCC=Cc1ccccc1	-19		
CCCN(CC1CC1)c1c([N+](=O)[O-])cc(C(F)(F)F)cc1[N+](=O)[O-]	32.3		log10 Koc (L/kg): 4.01; log10 vapour pressure (mmHg): -4.2
OC1CCCCC1	25.4	161	log10 Henry constant (atm·m³/mol): -5.36; log10 Koa: 5.18; log10 vapour pressure (mmHg): -0.0969; ready biodegradability: readily biodegradable
Cc1ccc2c(C)c(C)ccc2c1	14		
C=CC(O)C=C		116	
Cc1cncnc1	30.5	153	
O=C(O)c1ccnc(C(=O)O)c1	249		ready biodegradability: readily biodegradable
FC(F)(F)CCl	-106	6.1	
CCCCCOC(=O)c1ccccc1O		270	
CCC(Br)C(=O)Cl (stereo not given)		151	
CCC(=O)CO		160	
CC(C)[C@H]1CC[C@]2(C)C[C@H](O)[C@]3(C)CC[C@]12O3	114		
COc1ccc2c(c1)N(CCCN(C)C)c1ccccc1S2	46		
O=C(O)COc1ccc(Cl)cc1	164		
C=CC1CC=CCC1 (stereo not given)	-109	128	log10 vapour pressure (mmHg): 1.2; ready biodegradability: not readily biodegradable; log10 BCF: 2.22; log10 biotransformation half-life (days): -0.41
Clc1ccc2c(Cl)c(Cl)c(Cl)c(Cl)c2c1			log10 vapour pressure (mmHg): -5.96
CC1=C(C)C(=O)C=CC1=O	55		
COc1cccc(C(N)=O)c1	134		
CC(O)C(C)O (stereo not given)			ready biodegradability: readily biodegradable
O=[N+]([O-])c1ccc(Oc2ccccc2)c([N+](=O)[O-])c1	71		
CN1CCC(N(Cc2cccs2)c2ccccc2)CC1	96		
Clc1ccc(Cl)c(-c2cc(Cl)c(Cl)c(Cl)c2Cl)c1			log10 Henry constant (atm·m³/mol): -4.64

SMILES	melting point [°C]	boiling point [°C]	also measured
O=C(c1ccccc1)c1cccs1	56.5	300	
CCCCCF	-120	62.8	log10 vapour pressure (mmHg): 2.27
Cc1ccc(NC(O)=NC(C)(C)c2ccccc2)cc1	203		log10 vapour pressure (mmHg): -8.47
CC(=O)c1ccccn1		192	
CCN(CC)C1CCCCC1		193	
C=CC[Si](Cl)(Cl)CC=C			log10 vapour pressure (mmHg): 0.445
CC1(O)CCC(C(C)(C)O)CC1 (stereo not given)	158		
CCOP(=S)(OCC)O/N=C(\C#N)c1ccccc1	6.1		log10 vapour pressure (mmHg): -4.8; ready biodegradability: not readily biodegradable; log10 BCF: 2.91
CC=CC(=O)CC		138	
O[C@@H](Cc1ccccc1)c1ccccc1	67		
CN(C)C#N		164	
Brc1ccccc1I	9.5	257	
COC(=O)c1cc(Oc2ccc(C(F)(F)F)cc2Cl)ccc1[N+](=O)[O-]			log10 vapour pressure (mmHg): -7.12
Cc1ccc(C(=O)O)c(O)c1	177		
c1ccc2sc(SNC3CCCCC3)nc2c1	98		ready biodegradability: not readily biodegradable
COC(=O)[C@H]1[C@H]2C[C@@H]3c4[nH]c5ccccc5c4CCN3C[C@H]2C[C@@H](OC(=O)c2cc(OC)c(OC)c(OC)c2)[C@@H]1OC	230		
COP(=S)(OC)Oc1ccc(Sc2ccc(OP(=S)(OC)OC)cc2)cc1	30		log10 Koc (L/kg): 5
ClC(Cl)(Br)C(Cl)(Cl)Br	202		
C=CCCBr		98.5	
FCCCBr		101	
OC[C@H]1O[C@H](O[C@]2(CCl)O[C@H](CCl)[C@@H](O)[C@@H]2O)[C@H](O)[C@@H](O)[C@H]1Cl	130		
Brc1ccc(Oc2ccc(Br)cc2Br)cc1			log10 Koa: 9.5; log10 vapour pressure (mmHg): -6.17; logP: 5.94; log10 BCF: 5.83; log10 biotransformation half-life (days): 1.25
O=C(NCO)NCO	126		
N#CCc1ccccc1Br	1		
CCNC(N)=O	92.5		

SMILES	melting point [°C]	boiling point [°C]	also measured
C=C(C)C1CCC=C(C)C1 (stereo not given)		176	
CC1(C)CCCCC1O (stereo not given)	8	177	
Nc1c(Br)cc([N+](=O)[O-])cc1Br	207		
CC1=C2[C@H]3OC(=O)[C@@H](C)[C@@H]3[C@@H](O)C[C@@]2(C)C=CC1=O	203		
C=C(C)[C@H]1Cc2c(cc(O)c3c2O[C@@H]2COc4cc(OC)c(OC)cc4[C@@H]2C3=O)O1	195		
CCCC(=O)NN	45.5		
C=CBr	-138	15.8	log10 vapour pressure (mmHg): 3.01
O=C1OC(c2ccc(O)cc2)(c2ccc(O)cc2)c2ccccc21	262		ready biodegradability: not readily biodegradable
COC(=O)c1ccccc1O	-8	223	log10 vapour pressure (mmHg): -1.46
Nc1c(Cl)ccc(Cl)c1C(=O)O	155		
Clc1nc(Cl)nc(Cl)n1	154	192	
C[C@H](O)C(F)(F)F		75.5	log10 Henry constant (atm·m³/mol): -4.66; log10 vapour pressure (mmHg): 1.78
CCCCOCCO	-74.8	168	log10 Henry constant (atm·m³/mol): -5.8; log10 Koc (L/kg): 1.83; log10 vapour pressure (mmHg): -0.0555; ready biodegradability: readily biodegradable
Cc1cccc(C)c1I	11.2	230	
NC(N)=Nc1nc(CSCCC(N)=NS(N)(=O)=O)cs1	164		
Cc1csc(C)c1C	-26.2	162	
CC(CCl)[N+](=O)[O-] (stereo not given)		172	
CCNc1nc(NCC)nc(OC)n1			log10 Koc (L/kg): 2.34; log10 vapour pressure (mmHg): -5.62
O=[N+]([O-])c1ccc(F)cc1	21	205	
CC(C)NCC(O)COc1ccc(O)cc1 (stereo not given)	128		
Cc1csc(C)n1		146	log10 vapour pressure (mmHg): 0.706
